How the values were obtained:
[1] = tested on: intact fasted female Wistar rats; experiment: Hypoglycemic action in intact rats after single oral administration; assay type: in vivo, rat; conditions: 0.1–1 mg/kg oral
Experimental: Blood glucose levels were evaluated in the peripheral blood (from the tail vein) of intact fasted (6 h) female Wistar rats using a glucometer Contour TS (Bayer, Germany) at 60, 120, and 180 min after single oral administration of each ZB-09 analogs (in doses of 0.1, 1, and 10 mg/kg). The female animals were used because of their advantages in toxicological studies shown by several authors ([23]).

[2] = Biotransformation in vitro, microsomal stability (rat); assay type: in vitro ADME
Experimental: The metabolism of the compounds was studied in commercially available microsomal fractions derived from human and rat hepatocytes. Test compounds (0.5 μM) were incubated with microsomal fractions in the presence of NADPH during 30 min in a shaker at 37°C. Reactions were stopped at 0, 5, 10, 15, and 30 min by adding acetonitrile. After proteins precipitation, the remaining amount of the test compound in the supernatant was detected with high performance liquid chromatography tandem-mass spectrometry (HPLC-MS/MS) method using Agilent 1260 liquid chromatograph (Agilent Technologies, Santa Clara, CA, USA) and a QTRAP6500 triple quadrupole mass spectrometer with a TurboIonSpray electro-spraying module (ABSciex, Foster City, CA, USA) ([15]). Incubation was performed twice, with at least 2 measurements for each replicate (n ≥ 3). The half-life (T1/2), the clearance in vitro (CLint) and the remaining amount of substance (% of initial quantity) were calculated.

O=S1(=O)COc2cc(-c3ccc(OCC4CCN(c5ncc(Cl)cn5)CC4)c(F)c3)ccc21 [ZB-16]
blood glucose levels after single oral administration [1]: significant decrease
ER ([2]; Rat microsomal fraction): 0.58
CLh ([2]; Rat microsomal fraction, in mL/min/kg (unit assumed)): 32.09
microsomal CLint at 0.5 μM ([2]; liver microsomal fraction): 42.8 µL/min/mg
half-life at 0.5 μM ([2]; liver microsomal fraction, 0.5 μM, NADPH, read-out: t1/2, min): 1.08 h
